From patent publication US20080312220A1, “Oxadiazole Derivatives with Crth2 Receptor Activity” (priority 2005, published 2008) come the findings set out here.

Test [1] concerns the target T1, human CRTH2 receptor (Homo sapiens, UniProt Q9Y5Y4).
T1 construct: expressed in transfected cells; host or cells: COS-7 cells, transient transfection (calcium phosphate)
T1 sequence (Q9Y5Y4 1-395): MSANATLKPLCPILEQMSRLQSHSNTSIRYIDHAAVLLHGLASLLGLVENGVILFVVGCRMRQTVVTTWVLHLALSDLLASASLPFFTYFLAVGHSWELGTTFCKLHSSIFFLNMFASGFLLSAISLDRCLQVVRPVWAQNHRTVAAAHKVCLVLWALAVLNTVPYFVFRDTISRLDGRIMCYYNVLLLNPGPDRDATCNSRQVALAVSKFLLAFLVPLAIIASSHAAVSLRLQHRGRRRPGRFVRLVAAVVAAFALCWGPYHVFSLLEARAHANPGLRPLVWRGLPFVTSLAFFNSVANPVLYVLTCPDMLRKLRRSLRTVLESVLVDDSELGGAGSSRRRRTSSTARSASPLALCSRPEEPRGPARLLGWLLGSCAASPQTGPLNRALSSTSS
As to the kind of experiment: Receptor binding assay, competition with [3H]PGD2 on whole transfected cells. As to conditions: competition with 0.1 nM [3H]PGD2, whole cells expressing CRTH2. An excerpt:
(§1) Generation/origin of the cDNA Constructs. The coding sequence of the human CRTH2 receptor (genbank accession no NM_004778) was amplified by PCR from a human hippocampus cDNA library and inserted into the pcDNA3.1(+) expression vector (invitrogen) via 5′ HindIII and 3′ EcoRI. To generate a CRTH2-Renilla luciferase (CRTH2-Rluc) fusion protein, the CRTH2 coding sequence without a STOP codon and Rluc were amplified, fused in frame by PCR and subcloned into the pcDNA3.1(+)Zeo expression vector (invitrogen). Human β-arrestin2 (β-arr2) N-terminally tagged with GFP^2 (βarr2-GFP^2) and Renilla luciferase were purchased from BioSignal Packard Inc, (Montreal, Canada). The sequence identity of the construct was verified by restriction endonuclease digests and sequencing in both directions on an ABI Prism (Applied Biosystems, Foster City, Calif.).
(§2) Cell Culture and Transfection. COS-7 cells were grown in Dulbecco's modified Eagle's medium (DMEM) 1885 supplemented with 10% fetal bovine serum, 100 units/ml penicillin, […], and kept at 37° C. in a 10% CO2 atmosphere. HEK293 cells were maintained in Minimum Essential medium (MEM) supplemented with 10% (v/v) heat inactivated fetal calf serum (HIFCS), 2 mM Glutamax™-I, 1% non essential amino acids (NEAA), 1% sodium pyruvate and 10 μg/ml gentamicin. For binding experiments, COS7 cells were transiently transfected with the CRTH2 receptor using a calcium phosphate-DNAcoprecipitation method with the addition of chloroquine (as described by Holst et al., 2001↓). To perform the functional Bioluminescence Resonance Energy Transfer (BRET) assays, a HEK293 cell clone stably expressing Parr2-GFP^2 and CRTH2-Rluc was generated (CRTH2-HEK293 cells).
Binding assay. 24 h after transfection COS-7 cells were seeded into 96 well plates at a density of 30.000 cells/well. Competition binding experiments on whole cells were then performed about 18-24 h later using 0.1 nM [^3H]PGD2 (NEN, 172 Ci/mmol) in a binding buffer consisting of HBSS (GIBCO) and 10 mM HEPES. Competing ligands were diluted in DMSO which was kept constant at 1% (v/v) of the final incubation volume. Total and nonspecific binding were determined in the absence and presence of 10 μM PGD2. Binding reactions were routinely conducted for 3 h at 4° C. and terminated by 2 washes (100 μl each) with ice cold binding buffer. Radioactivity was determined by liquid scintillation counting in a TOPCOUNTER (Packard) following over night incubation in Microscint 20. Stable HEK293 cells were seeded at a density of 30.000 cells/well 18-24 h prior to the binding assay which was performed essentially as described for COS7 cells above. Determinations were made in duplicates.
(§3) Curve analysis was performed with the GraphPadPrism software 3.0 (Graphpad Prism Inc., San Diego, USA) and IC50 values were calculated as a measure of the antagonistic potencies.

The target of test [2] is T2, human CRTH2-Rluc (Homo sapiens, UniProt Q9Y5Y4).
T2 construct: expressed in transfected cells; host or cells: HEK293 cell clone stably expressing βarr2-GFP2 and CRTH2-Rluc
T2 sequence (Q9Y5Y4 1-395): T1 sequence (Q9Y5Y4 1-395)
As to the kind of experiment: Functional antagonist BRET assay (CRTH2-Rluc / GFP2-β-arrestin2 in HEK293 cells). The format is cell-based. The settings on record: HEK293 cells stably expressing CRTH2-Rluc and GFP2-β-arr2, read-out: Antag. IC50.
Source text: as §1, §2
BRET assay. Functional BRET assays were performed on HEK293 cells stably expressing human CRTH2-Rluc and GFP^2-β-arr2. Prior to their use in the BRET assay cells were detached and re-suspended in D-PBS with 1000 mg/L L-Glucose at a density of 2×10^6 cells/mL. DeepBlueC™ was diluted to 50 μM in D-PBS with 1000 mg/L L-Glucose (light sensitive). 100 μL of cell suspension was transferred to wells in a 96-well microplate (white OptiPlate) and placed in the Mithras LB 940 instrument (BERTHOLD TECHNOLOGIES, Bad Wildbad, Germany). 12 μL/well agonist was then injected by injector 1 and 10 μL/well DeepBlueC™ was injected simultaneously by injector 2. Five seconds after the injections the light output from the well was measured sequentially at 400 nm and 515 nm, and the BRET signal (mBRET ratio) was calculated by the ratio of the fluorescence emitted by GFP^2-β-arr2 (515 nm) over the light emitted by the receptor-Rluc (400 nm). Antagonists were added before placing the microplates into the Mithras LB 940 and allowed to incubate for 15 minutes prior to the addition of agonist and DeepBlueC™. Compounds were dissolved in DMSO and the final DMSO concentration was kept constant at 1% in the assay.
as §3

A word on the IC50: it is the point on the concentration scale where inhibition reaches its midpoint.

Structures are written as SMILES. A value given as a limit tells only on which side of the number the result lay.

Regarding `CN1CCC(c2ccccc2)(c2noc(-c3cc(Br)ccc3OCC(=O)O)n2)CC1` [Example D11, {4-Bromo-2-[3-(1-methyl-4-phenyl-piperidin-4-yl)-[1,2,4]oxadiazol-5-yl]-phenoxy}-acetic acid], the IC50 in test [1] and in test [2] was less than 500 nM in each case.
Consider `O=C(O)COc1ccc(Br)cc1-c1nc(C2(c3c(Cl)cccc3Cl)CC2)no1` [Example D13, (4-Bromo-2-{3-[1-(2,6-dichloro-phenyl)-cyclopropyl]-[1,2,4]oxadiazol-5-yl}-phenoxy)-acetic acid], for which the IC50 in test [1] and in test [2] was less than 500 nM in each case.
As to `CC(=O)OCC(=O)N1CCC(c2ccccc2)(c2noc(-c3cc(Br)ccc3OCC(=O)O)n2)CC1` [Example D17, (2-{3-[1-(2-Acetoxy-acetyl)-4-phenyl-piperidin-4-yl]-[1,2,4]oxadiazol-5-yl}-4-bromo-phenoxy)-acetic acid], the half-maximal inhibitory concentration (IC50) in test [1] and in test [2] was less than 500 nM in each case.
With `O=C(O)COc1ccc(Br)cc1-c1nc(C(c2ccc(F)cc2)N2CCS(=O)(=O)CC2)no1` (stereo not shown) [Example D20, (4-Bromo-2-{3-[(1,1-dioxo-1lambda*6*-thiomorpholin-4-yl)-(4-fluoro-phenyl)-methyl]-[1,2,4]oxadiazol-5-yl}-phenoxy)-acetic acid], the IC50 in test [1] and in test [2] was less than 500 nM in each case.
Regarding `O=C(O)COc1ccc(Br)cc1-c1nc(C2(c3ccc(F)cc3)CC2)no1` [Example D6, (4-Bromo-2-{3-[1-(4-fluoro-phenyl)-cyclopropyl]-[1,2,4]oxadiazol-5-yl}-phenoxy)-acetic acid], the IC50 in test [1] and in test [2] was less than 500 nM throughout.
As for `O=C(O)COc1ccc(Br)cc1-c1nc(C2(c3ccccc3)CCN(C(=O)C3CC3)CC2)no1` [Example D12, {4-Bromo-2-[3-(1-cyclopropanecarbonyl-4-phenyl-piperidin-4-yl)-[1,2,4]oxadiazol-5-yl]-phenoxy}-acetic acid], the IC50 in test [1] and in test [2] was less than 500 nM throughout.
On to `O=C(O)COc1ccc(Br)cc1-c1nc(C2(c3ccccc3)CCNCC2)no1` [Example D5, {4-Bromo-2-[3-(4-phenyl-piperidin-4-yl)-[1,2,4]oxadiazol-5-yl]-phenoxy}-acetic acid], for which the IC50 in test [1] is less than 500 nM; in test [2], 500 to 5000 nM.
As to `CC(=O)N1CCC(c2ccccc2)(c2noc(-c3cc(Br)ccc3OCC(=O)O)n2)CC1` [Example D2, {2-[3-(1-Acetyl-4-phenyl-piperidin-4-yl)-[1,2,4]oxadiazol-5-yl]-4-bromo-phenoxy}-acetic acid], the half-maximal inhibitory concentration (IC50) in test [1] and in test [2] was less than 500 nM throughout.
Regarding `O=C(O)COc1ccc(Br)cc1-c1nc(C2(c3ccccc3)CCC2)no1` [Example D14, {4-Bromo-2-[3-(1-phenyl-cyclobutyl)-[1,2,4]oxadiazol-5-yl]-phenoxy}-acetic acid], the IC50 in test [1] and in test [2] was less than 500 nM each time.
Consider `CS(=O)(=O)N1CCC(c2ccccc2)(c2noc(-c3cc(Br)ccc3OCC(=O)O)n2)CC1` [Example D10, {4-Bromo-2-[3-(1-methanesulfonyl-4-phenyl-piperidin-4-yl)-[1,2,4]oxadiazol-5-yl]-phenoxy}-acetic acid], for which the IC50 in test [1] and in test [2] was less than 500 nM in each case.
With `COC(=O)N1CCC(c2ccccc2)(c2noc(-c3cc(Br)ccc3OCC(=O)O)n2)CC1` [Example D16, 4-[5-(5-Bromo-2-carboxymethoxy-phenyl)-[1,2,4]oxadiazol-3-yl]-4-phenyl-piperidine-1-carboxylic acid methyl ester], the IC50 in test [1] and in test [2] was less than 500 nM in each case.
As to `O=C(O)COc1ccc(Br)cc1-c1nc(C2(c3ccccc3)CCN(C(=O)CO)CC2)no1` [Example D18, (4-Bromo-2-{3-[1-(2-hydroxy-acetyl)-4-phenyl-piperidin-4-yl]-[1,2,4]oxadiazol-5-yl}-phenoxy)-acetic acid], the IC50 in test [1] and in test [2] was less than 500 nM each time.
With `CS(=O)(=O)N1CCC(c2ccc(F)cc2)(c2noc(-c3cc(Br)ccc3OCC(=O)O)n2)CC1` [Example D19, (4-Bromo-2-{3-[4-(4-fluoro-phenyl)-1-methanesulfonyl-piperidin-4-yl]-[1,2,4]oxadiazol-5-yl}-phenoxy)-acetic acid], the IC50 in test [1] and in test [2] was less than 500 nM throughout.
As to `CCC(=O)N1CCC(c2ccccc2)(c2noc(-c3cc(Br)ccc3OCC(=O)O)n2)CC1` [Example D7, {4-Bromo-2-[3-(4-phenyl-1-propionyl-piperidin-4-yl)-[1,2,4]oxadiazol-5-yl]-phenoxy}-acetic acid], the IC50 in test [1] and in test [2] was less than 500 nM in each case.
Consider `O=C(O)COc1ccc(Br)cc1-c1nc(C2(c3ccccc3)CC2)no1` [Example D1, {4-Bromo-2-[3-(1-phenylcyclopropyl)-[1,2,4]oxadiazol-5-yl]phenoxy}acetic acid], for which the IC50 in test [1] and in test [2] was less than 500 nM in each case.
For `O=C(O)COc1ccc(Br)cc1-c1nc(C2(c3ccccc3)CCCCC2)no1` [Example D3, {4-Bromo-2-[3-(1-phenyl-cyclohexyl)-[1,2,4]oxadiazol-5-yl]-phenoxy}-acetic acid], the IC50 in test [1] and in test [2] was less than 500 nM in each case.
With `O=C(O)COc1ccc(Br)cc1-c1nc(C(c2ccccc2)N2CCOCC2)no1` (stereo not shown) [Example D4], the IC50 in test [1] and in test [2] was less than 500 nM each time.
On to `O=C(O)COc1ccc(Br)cc1-c1nc(C2(c3ccccc3)CCN(S(=O)(=O)C3CC3)CC2)no1` [Example D15, {4-Bromo-2-[3-(1-cyclopropanesulfonyl-4-phenyl-piperidin-4-yl)-[1,2,4]oxadiazol-5-yl]-phenoxy}-acetic acid], for which the concentration for half-maximal inhibition (IC50) in test [1] and in test [2] was less than 500 nM throughout.
Regarding `C[C@H](Oc1ccc(Br)cc1-c1nc(C2(c3ccc(F)cc3)CC2)no1)C(=O)O` [Example D21, (S)-2-(4-Bromo-2-{3-[1-(4-fluoro-phenyl)-cyclopropyl]-[1,2,4]oxadiazol-5-yl}-phenoxy)-propionic acid], the IC50 in test [1] and in test [2] was less than 500 nM throughout.
As to `O=C(O)COc1ccc(Br)cc1-c1nc(C2(c3ccc(Cl)cc3Cl)CC2)no1` [Example D9, (4-Bromo-2-{3-[1-(2,4-dichloro-phenyl)-cyclopropyl]-[1,2,4]oxadiazol-5-yl}-phenoxy)-acetic acid], the IC50 in test [1] and in test [2] was less than 500 nM each time.
